In paper PMC6815936, “A Pan-Cyclophilin Inhibitor, CRV431, Decreases Fibrosis and Tumor Development in Chronic Liver Disease Models” (The Journal of Pharmacology and Experimental Therapeutics, 2019):
Square brackets hold non-standard residues; d marks the D form. Peptide text beside a SMILES is read from it. NMeThr(4R-Me,4-(CH2)6NHAc) = CN[C@H](C(=O)O)[C@H](O)[C@H](C)CCCCCCNC(C)=O; NMeL = CN[C@@H](CC(C)C)C(=O)O; NMeV = CN[C@H](C(=O)O)C(C)C; dNMeA = CN[C@H](C)C(=O)O; Abu = CC[C@H](N)C(=O)O

How the values were obtained:
recombinant Cyp A (PPIA) = molecular target: T1, recombinant Cyp A (PPIA) (Homo sapiens, UniProt P62937); assay: Cyclophilin isomerase assay, Cyp A; format: biochemical
T1 construct: purchased R&D Systems 3589-CAB
Description: Cyclophilin isomerase activity was measured with an assay described by [Kofron et al. (1991)] with adaptations to 96-well plates. In this assay cyclophilins catalyze cis-to-trans isomerization of a proline peptide bond in a nitroanalide-coupled peptide substrate followed by cleavage of the trans-conformer peptide by α-chymotrypsin, release of the p-nitroaniline chromogen, and quantitation of p-nitroaniline by absorbance at 410 nm. All solutions were pre-equilibrated, and all assays were conducted at 4°C. Plates were preloaded with 5 µl peptide solution consisting of N-succinyl-alanine-alanine-proline-phenylalanine-p-nitroanilide (S7388; Sigma-Aldrich) and 400 mM lithium chloride (310468; Sigma-Aldrich) in anhydrous trifluoroethanol (T63002; Sigma-Aldrich). […] Absorbance measurements with a BMG Polarstar Galaxy plate reader were begun immediately and made at 6-second intervals for 6 minutes. Reaction curves were represented by increases in optical density 410 nm as a function of reaction time. For Ki determinations, initial reaction velocities were obtained from the reaction curves and plotted relative to substrate concentration, and the curves were fitted to the enzyme competitive inhibition model (GraphPad Prism) to derive Ki, maximum velocity (Vmax), and Michaelis constant values. For IC50 determinations, the reaction curves were fitted to one-phase exponential association regressions to obtain first-order rate constants.

[1] = tested on: human peripheral blood mononuclear cells; assay: CFSE-PBMC proliferation; format: cell-based; conditions: highest tested concentration of 10 µM, 3 days
Description: Peripheral blood mononuclear cells (PBMC) were isolated by Ficoll Paque Plus centrifugation (17144003; GE Life Sciences) of venous blood from a healthy human volunteer. Cells were incubated for 5 minutes with 5 µg/ml carboxyfluorescein diacetate succinimidyl ester (C1157; Thermo Fisher) to produce stable intracellular carboxyfluorescein succinimidyl ester (CFSE) labeling (CFSE-PBMC). […] Cells were collected after 3 days of culture incubation, and flow cytometry was used to measure the partitioning of CFSE into daughter cells arising from cell division (discrete cell populations with successively halved CFSE content). Daughter cells as a percentage of all CFSE-labeled cells were normalized to DMSO treatment (100% stimulation) and wells without CD3 antibody coating (nonstimulated).

MATE-2 = molecular target: T2, MATE-2 (Homo sapiens, UniProt Q86VL8); assay: Drug transporter inhibition, MATE-2; format: in vitro ADME; conditions: MATE-2, HEK293
T2 construct: expressed in transfected cells
Description: Inhibition of all other transporters was assessed by measuring substrate accumulation in cells recombinantly expressing the transporter. Known inhibitors of each transporter were used as positive controls for the assays. […] Specific, ATP-dependent uptake was determined by subtracting uptake in negative control vesicles and cells not expressing the transporters, and secondly by subtracting uptake in the absence of ATP in the assays. Specific, ATP-dependent uptake was plotted as a function of CRV431 concentrations and fitted to nonlinear regressions to obtain IC50 values.

[2] = tested on: NASH model in C57BL/6 mice; assay: Mouse NASH model (streptozotocin plus high-fat diet); format: in vivo; design: NAS score / Steatosis score / Inflammation score / Ballooning score: scale not given here
Description: NASH was initiated in 2-day-old C57BL/6J male mice by intraperitoneal injection with 200 μg streptozotocin (S0130; Sigma-Aldrich) to disrupt pancreatic β cells, induce diabetes, and promote adiposity in the liver. Mice were weaned at 3 weeks of age and begun on a high-fat diet with 60%kcal fat (D12492N; Research Diets) for the duration of the studies. Additionally, mice with a regular diet (D12450KN; Research Diets) and without streptozotocin were included as negative controls. CRV431 was dissolved in a self-microemulsifying drug vehicle and then diluted with PBS and administered daily by oral gavage at 50 mg/kg per day. The start time and duration of vehicle and CRV431 treatments varied depending on the study.
Blood and livers were collected at the end of the NASH and CCl4 studies. In some studies, serum or plasma was isolated from freshly-collected blood, whereas in other studies blood was frozen for later analysis of CRV431 concentration. Livers were immersion-fixed in zinc-formalin and paraffin-embedded for histologic processing. Liver sections were stained with hematoxylin and eosin for assessment of inflammation, ballooning, and steatosis, and with sirius red for assessment of collagen I and III (fibrosis). Sirius red staining was quantified by blinded analysis in one section per liver using ImageJ software. Scoring of steatosis, ballooning, and inflammation (sum of portal and lobular inflammation) in liver sections was based on criteria and training by a board-certified pathologist.
Liver tumors were quantified in freshly collected livers at sacrifice in one NASH study ending at 30 weeks of age. Liver tumors were counted and their diameters measured with a ruler and classified as small (>0.1 cm diameter, but not exceeding 0.5 cm), medium (0.5–1 cm diameter), or large (>1 cm diameter).

P-gp = P-gp (Homo sapiens, UniProt P08183)
Description: (§1) Briefly, PGP and breast cancer resistance protein inhibition was assessed by measuring the bidirectional transport of substrates across cell monolayers in transwell culture plates. Efflux ratios were represented as (apical-to-basal flux)/(basal-to-apical flux), and efflux ratios were plotted relative to CRV431 concentration to derive IC50 values. Bile salt export pump (BSEP) and multidrug resistance protein (MRP)1 inhibition was assessed by measuring substrate accumulation in membrane vesicles prepared from insect Sf9 cells and recombinantly expressing BSEP and MRP2 (Genomembrane). Inhibition of all other transporters was assessed by measuring substrate accumulation in cells recombinantly expressing the transporter. Known inhibitors of each transporter were used as positive controls for the assays. […] Specific, ATP-dependent uptake was determined by subtracting uptake in negative control vesicles and cells not expressing the transporters, and secondly by subtracting uptake in the absence of ATP in the assays. Specific, ATP-dependent uptake was plotted as a function of CRV431 concentrations and fitted to nonlinear regressions to obtain IC50 values.

MRP2 [3] = molecular target: T3, MRP2 (Homo sapiens, UniProt Q92887)
Description: (§2) Bile salt export pump (BSEP) and multidrug resistance protein (MRP)1 inhibition was assessed by measuring substrate accumulation in membrane vesicles prepared from insect Sf9 cells and recombinantly expressing BSEP and MRP2 (Genomembrane). Inhibition of all other transporters was assessed by measuring substrate accumulation in cells recombinantly expressing the transporter. Known inhibitors of each transporter were used as positive controls for the assays. […] Specific, ATP-dependent uptake was determined by subtracting uptake in negative control vesicles and cells not expressing the transporters, and secondly by subtracting uptake in the absence of ATP in the assays. Specific, ATP-dependent uptake was plotted as a function of CRV431 concentrations and fitted to nonlinear regressions to obtain IC50 values.

OATP1B1 = OATP1B1 (Homo sapiens, UniProt Q9Y6L6)
Description: as §1

[4] = rat, in vivo, po
Description: (§3) Male and female Sprague–Dawley rats and male C57BL/6 mice from the carbon tetrachloride and NASH studies were used to evaluate CRV431 pharmacokinetics and distribution. […] Terminal whole blood and livers were collected and frozen until drug extraction. Liver samples were homogenized in PBS or 1% formic acid (0.1 g–0.4 g liver sample per ml solvent) with bead-based homogenizers (TissueLyser or Beadruptor). […] Sample and standard compounds were extracted from blood and liver homogenates using a zinc sulfate/methanol precipitation method and quantified by liquid chromatography–electrospray ionization–mass spectrometry, as previously described ([Trepanier et al., 2018]). Liver CRV431 concentrations were normalized to the masses of the liver samples.
(§4) CRV431 pharmacokinetics in rats. […] Whole–blood concentrations of the two compounds were determined at the indicated time points. […] Means and S.D. shown.

MRP2 [5] = molecular target: T3, MRP2; assay: Drug transporter inhibition, MRP2; conditions: MRP2, Vesicles
Description: as §2

OAT1 = OAT1 (Homo sapiens, UniProt Q4U2R8); assay: Drug transporter inhibition, OAT1; conditions: OAT1, HEK293
Description: as §2

OCT2 = OCT2 (Homo sapiens, UniProt O15244); assay: Drug transporter inhibition, OCT2; conditions: OCT2, HEK293
Description: as §2

[6] = Single oral dose pharmacokinetics in rats; conditions: single oral dose 10 mg/kg
Description: as §3, §4

[7] = CRV431 blood and liver exposures across mouse and rat studies; conditions: daily oral dosing, mice and rats
Description: Male and female Sprague–Dawley rats and male C57BL/6 mice from the carbon tetrachloride and NASH studies were used to evaluate CRV431 pharmacokinetics and distribution. […] Terminal whole blood and livers were collected and frozen until drug extraction. Liver samples were homogenized in PBS or 1% formic acid (0.1 g–0.4 g liver sample per ml solvent) with bead-based homogenizers (TissueLyser or Beadruptor). […] Liver CRV431 concentrations were normalized to the masses of the liver samples.

[8] = Week 3–14 Treatment, 50 mg/kg per day oral
[9] = Week 8–14 Treatment, 50 mg/kg per day oral
[10] = Week 20–30 Treatment, 50 mg/kg per day oral

T1 sequence (P62937 whole entry): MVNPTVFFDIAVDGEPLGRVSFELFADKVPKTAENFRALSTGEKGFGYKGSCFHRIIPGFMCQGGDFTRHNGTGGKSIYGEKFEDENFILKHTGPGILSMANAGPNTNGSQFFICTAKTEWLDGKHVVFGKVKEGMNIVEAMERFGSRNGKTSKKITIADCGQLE
T3 sequence (Q92887 whole entry): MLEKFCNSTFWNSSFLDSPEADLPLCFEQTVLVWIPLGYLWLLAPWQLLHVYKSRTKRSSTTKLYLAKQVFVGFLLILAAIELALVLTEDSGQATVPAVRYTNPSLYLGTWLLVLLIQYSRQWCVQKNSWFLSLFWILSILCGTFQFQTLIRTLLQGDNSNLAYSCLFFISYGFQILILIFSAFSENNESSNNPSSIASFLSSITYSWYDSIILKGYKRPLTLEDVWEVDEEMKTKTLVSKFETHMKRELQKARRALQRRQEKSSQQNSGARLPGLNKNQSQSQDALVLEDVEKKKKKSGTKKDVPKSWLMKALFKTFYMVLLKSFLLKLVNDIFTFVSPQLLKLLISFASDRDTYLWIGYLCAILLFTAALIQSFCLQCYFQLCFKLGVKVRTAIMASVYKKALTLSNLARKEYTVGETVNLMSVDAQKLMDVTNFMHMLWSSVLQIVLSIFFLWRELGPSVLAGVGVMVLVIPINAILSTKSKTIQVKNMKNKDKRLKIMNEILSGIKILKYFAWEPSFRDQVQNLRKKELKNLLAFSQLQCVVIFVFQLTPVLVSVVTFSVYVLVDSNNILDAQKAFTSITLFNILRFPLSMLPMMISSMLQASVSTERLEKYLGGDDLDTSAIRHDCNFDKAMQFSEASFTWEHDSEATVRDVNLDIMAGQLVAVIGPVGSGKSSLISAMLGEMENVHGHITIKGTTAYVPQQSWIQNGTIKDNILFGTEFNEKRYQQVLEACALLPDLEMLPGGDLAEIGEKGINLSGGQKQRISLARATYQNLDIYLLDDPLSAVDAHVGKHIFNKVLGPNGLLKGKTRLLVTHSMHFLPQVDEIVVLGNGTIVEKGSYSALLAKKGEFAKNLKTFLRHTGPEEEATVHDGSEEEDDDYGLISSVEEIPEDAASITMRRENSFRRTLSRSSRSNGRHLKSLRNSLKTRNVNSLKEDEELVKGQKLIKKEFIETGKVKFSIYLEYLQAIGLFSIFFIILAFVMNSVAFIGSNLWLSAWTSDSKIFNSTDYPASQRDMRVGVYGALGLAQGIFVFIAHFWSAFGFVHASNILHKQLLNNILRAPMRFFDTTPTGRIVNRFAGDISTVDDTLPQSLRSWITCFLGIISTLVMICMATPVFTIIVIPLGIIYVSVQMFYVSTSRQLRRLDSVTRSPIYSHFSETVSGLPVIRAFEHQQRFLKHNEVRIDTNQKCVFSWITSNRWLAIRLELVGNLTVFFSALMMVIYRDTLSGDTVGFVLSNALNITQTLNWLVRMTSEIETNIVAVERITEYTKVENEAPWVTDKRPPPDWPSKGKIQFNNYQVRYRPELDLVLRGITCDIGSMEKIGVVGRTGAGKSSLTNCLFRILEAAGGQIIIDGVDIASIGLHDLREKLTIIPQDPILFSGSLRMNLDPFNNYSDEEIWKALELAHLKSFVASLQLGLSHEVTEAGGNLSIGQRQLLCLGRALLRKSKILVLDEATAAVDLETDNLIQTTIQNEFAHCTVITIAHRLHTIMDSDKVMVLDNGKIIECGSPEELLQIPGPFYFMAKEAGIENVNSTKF
Sequence of OCT2 (O15244 whole entry): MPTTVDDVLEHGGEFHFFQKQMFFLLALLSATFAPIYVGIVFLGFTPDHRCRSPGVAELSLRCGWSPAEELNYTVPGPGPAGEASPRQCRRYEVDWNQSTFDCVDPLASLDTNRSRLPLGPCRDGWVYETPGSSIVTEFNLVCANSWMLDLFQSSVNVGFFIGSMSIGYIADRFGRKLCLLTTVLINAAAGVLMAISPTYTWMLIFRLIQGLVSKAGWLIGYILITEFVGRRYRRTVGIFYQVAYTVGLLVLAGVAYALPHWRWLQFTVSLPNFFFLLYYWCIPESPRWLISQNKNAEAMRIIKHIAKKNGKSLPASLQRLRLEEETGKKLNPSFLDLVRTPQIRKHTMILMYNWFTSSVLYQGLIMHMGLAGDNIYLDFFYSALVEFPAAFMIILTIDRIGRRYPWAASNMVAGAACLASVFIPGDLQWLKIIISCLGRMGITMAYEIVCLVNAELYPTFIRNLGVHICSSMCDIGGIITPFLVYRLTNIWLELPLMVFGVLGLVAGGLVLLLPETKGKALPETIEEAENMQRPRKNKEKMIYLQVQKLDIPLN
Sequence of OAT1 (Q4U2R8 whole entry): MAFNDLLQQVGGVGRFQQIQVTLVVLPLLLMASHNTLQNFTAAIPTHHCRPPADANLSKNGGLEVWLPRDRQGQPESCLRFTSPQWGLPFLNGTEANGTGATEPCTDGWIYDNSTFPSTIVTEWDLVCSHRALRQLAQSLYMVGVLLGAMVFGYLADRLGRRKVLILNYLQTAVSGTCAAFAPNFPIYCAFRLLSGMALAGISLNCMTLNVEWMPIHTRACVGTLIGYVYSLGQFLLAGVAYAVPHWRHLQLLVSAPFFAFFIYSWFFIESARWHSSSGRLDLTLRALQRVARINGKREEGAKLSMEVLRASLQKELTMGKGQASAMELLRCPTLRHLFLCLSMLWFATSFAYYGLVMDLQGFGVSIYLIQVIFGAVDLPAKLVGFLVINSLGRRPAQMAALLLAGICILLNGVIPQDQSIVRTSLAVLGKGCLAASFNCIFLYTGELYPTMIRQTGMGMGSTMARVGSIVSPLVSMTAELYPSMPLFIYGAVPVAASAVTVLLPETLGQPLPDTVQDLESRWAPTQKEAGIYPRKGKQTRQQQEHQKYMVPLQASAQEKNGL
T2 sequence (Q86VL8 whole entry): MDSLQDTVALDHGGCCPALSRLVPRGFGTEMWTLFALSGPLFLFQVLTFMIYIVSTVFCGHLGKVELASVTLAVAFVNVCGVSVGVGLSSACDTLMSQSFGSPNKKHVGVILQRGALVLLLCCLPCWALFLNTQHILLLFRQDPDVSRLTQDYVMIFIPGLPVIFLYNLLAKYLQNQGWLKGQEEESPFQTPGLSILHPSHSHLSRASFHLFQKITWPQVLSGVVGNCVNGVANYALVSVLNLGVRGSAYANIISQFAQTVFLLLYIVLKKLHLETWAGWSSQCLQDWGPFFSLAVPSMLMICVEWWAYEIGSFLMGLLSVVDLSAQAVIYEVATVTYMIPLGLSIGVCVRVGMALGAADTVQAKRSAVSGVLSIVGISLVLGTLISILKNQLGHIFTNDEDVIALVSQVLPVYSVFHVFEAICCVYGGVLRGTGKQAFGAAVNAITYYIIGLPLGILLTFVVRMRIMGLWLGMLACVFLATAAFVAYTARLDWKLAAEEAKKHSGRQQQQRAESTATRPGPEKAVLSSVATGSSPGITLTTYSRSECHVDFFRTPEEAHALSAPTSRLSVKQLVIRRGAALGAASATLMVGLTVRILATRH
Sequence of OATP1B1 (Q9Y6L6 whole entry): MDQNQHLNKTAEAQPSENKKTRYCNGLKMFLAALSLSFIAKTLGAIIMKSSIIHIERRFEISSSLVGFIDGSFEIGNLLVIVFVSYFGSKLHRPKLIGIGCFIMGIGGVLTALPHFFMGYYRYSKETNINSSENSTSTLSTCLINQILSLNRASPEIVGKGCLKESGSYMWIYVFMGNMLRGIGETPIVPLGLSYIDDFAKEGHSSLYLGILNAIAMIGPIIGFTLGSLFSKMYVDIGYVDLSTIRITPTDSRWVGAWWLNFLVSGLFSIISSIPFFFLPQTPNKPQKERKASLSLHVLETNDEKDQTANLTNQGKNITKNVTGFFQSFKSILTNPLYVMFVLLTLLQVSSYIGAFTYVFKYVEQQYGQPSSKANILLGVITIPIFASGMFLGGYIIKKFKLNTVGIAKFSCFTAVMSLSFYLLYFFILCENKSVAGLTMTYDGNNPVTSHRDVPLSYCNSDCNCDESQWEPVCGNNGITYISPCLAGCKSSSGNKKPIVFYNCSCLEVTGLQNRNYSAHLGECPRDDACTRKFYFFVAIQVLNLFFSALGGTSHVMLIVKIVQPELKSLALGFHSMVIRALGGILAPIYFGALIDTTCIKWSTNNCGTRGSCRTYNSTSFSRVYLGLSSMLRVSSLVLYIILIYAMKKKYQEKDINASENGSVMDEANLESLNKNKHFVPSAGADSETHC

## CC[C@@H]1NC(=O)[C@H]([C@H](O)[C@H](C)CCCCCCNC(C)=O)N(C)C(=O)[C@H](C(C)C)N(C)C(=O)[C@H](CC(C)C)N(C)C(=O)[C@H](CC(C)C)N(C)C(=O)[C@@H](C)NC(=O)[C@H](C)NC(=O)[C@H](CC(C)C)N(C)C(=O)[C@H](C(C)C)NC(=O)[C@H](CC(C)C)N(C)C(=O)[C@@H](C)N(C)C1=O [CRV431] (cyclo(A[dA][NMeL][NMeL][NMeV][NMeThr(4R-Me,4-(CH2)6NHAc)][Abu][dNMeA][NMeL]V[NMeL]))
Recombinant Cyp A (PPIA)
  Maximum enzyme velocity (Vmax) in the presence of compound: 5.3 µmol/s per nanomole Cyp A
Recombinant Cyp A (PPIA); CsA IC50 vs CRV431 IC50, PPIA
  IC50 Fold Difference: 10.2
Recombinant Cyp A (PPIA); PPIA (Cyp A), one peptide substrate concentration
  IC50: 2.5 nM
Recombinant Cyp A (PPIA); competitive enzyme inhibition model, multiple substrate concentrations, 4°C, read-out: Ki toward cyclophilin A
  Ki: 1.3 nM
Recombinant Cyp A (PPIA); ratio of Ki values
  fold higher potency of CRV431 vs CsA (Ki): 13 fold
[1]
  inhibition of proliferation: 40%
MATE-2
  CRV431 Inhibitory Potency vs. CsA: Same (no inhibition)
[2]; [8]
  Ballooning score: 0.9 ± 0.6
  Blood glucose: 319 ± 79
  Body weight: 33.5 ± 5.2 (P < 0.05)
  Inflammation score: 1.5 ± 0.7
  Liver weight: 1.28 ± 0.28
  NAS score: 3.7 ± 2.2 (P < 0.05)
  Sirius red %: 1.96 ± 0.72 (P < 0.05) %
  Steatosis score: 1.3 ± 1.1
[2]; [9]
  Ballooning score: 1.8 ± 0.5
  Blood glucose: 463 ± 143
  Body weight: 26.1 ± 5.1
  Inflammation score: 2.4 ± 0.7
  Liver weight: 1.35 ± 0.28
  NAS score: 6.1 ± 1.1
  Sirius red %: 1.02 ± 0.48 (P < 0.05) %
  Steatosis score: 2.0 ± 0.5
[2]; [10]
  Blood glucose: 405 ± 134
  Body weight: 41.6 ± 8.9
  Liver weight: 3.04 ± 1.19 (P < 0.05)
  Sirius red %: 1.62 ± 0.57 (P < 0.05) %
  Tumor number: 4.5 ± 4.4
[2]; Week 20–30 Treatment, 50 mg/kg per day oral, 0–7 scale
  Tumor score: 2.25 ± 2.0 (P < 0.05)
[2]; late, oncogenic stage of the NASH model (abstract)
  reduction in the number and size of liver tumors: 50%
[2]; three NASH model studies, 50 mg/kg per day oral, sirius red
  fibrosis levels lower after CRV431 treatment compared with vehicle treatment: 37%–46%
[2]; treatment from weeks 20 to 30
  livers lacking tumors: 2 of 10
[2]; treatment from weeks 20 to 30, vs vehicle
  decrease of tumor burden (score of tumor number and size): 52%
P-gp
  IC50: > 50000 nM
MRP2 [3]
  IC50: 20700 nM
OATP1B1
  IC50: 300 nM
[4]
  half-life (in words): relatively long CRV431 half-life that exceeded that of CsA
MRP2 [5]
  CRV431 Inhibitory Potency vs. CsA: 2.1× less
OAT1
  CRV431 Inhibitory Potency vs. CsA: Same (no inhibition)
  IC50: > 50000 nM
OCT2
  CRV431 Inhibitory Potency vs. CsA: Same (no inhibition)
  IC50: > 50000 nM
[6]
  clearance fold difference, CRV431 vs CsA: 3.5 fold
[7]
  fold higher levels in liver than in the blood: 5- to 15 fold
